# Laboratory results reported in the supplement of paper PMC10331698.
# ± gives the standard deviation of the averaged measurements.
# Key:
# Assay in all cases: level (log10 ratio to DMSO vehicle control); higher = higher biomarker level / cell amount than vehicle control
# Settings in all cases: in DMSO
# [1] = compound: C=CC(F)(F)C(F)(F)C(F)(F)C(F)(F)C(F)(F)C(F)(F)C(F)(F)C(F)(F)C=C [1,8-Divinylperfluorooctane]
# Experimental: (§1)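 BioMAP Diversity Plus panel of 12 human primary cell co-culture systems (3C, 4H, LPS, SAg, BT, BF4T, BE3C, CASM3C, HDF3CGF, KF3CT, MyoF, Mphg). Compounds were added 1 h before stimulation and left for 24 h (MyoF 48 h; BT 72 h for soluble read-outs or 6 d for IgG). Biomarkers were read by ELISA, cytotoxicity by SRB, PBMC viability and proliferation by Alamar Blue. Each well value was divided by the mean of 8 DMSO control wells on the same plate and log10 transformed; duplicate blinded samples were tested at 4 concentrations.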
# [2] = compound: FC(F)(F)C(F)(F)C(F)(F)C(F)(F)C(F)(F)CCI [1-Iodo-1H,1H,2H,2H-perfluoroheptane]
# Experimental: as §1
# [3] = compound: NCC(F)(F)C(F)(F)C(F)(F)C(F)(F)C(F)(F)C(F)(F)C(F)(F)F [1H,1H-Perfluorooctylamine]
# Experimental: as §1
# [4] = compound: O=C(O)C(F)(F)C(F)(F)C(F)(F)F [Perfluorobutanoic acid]
# Experimental: as §1
# [5] = compound: O=C(O)C(F)(F)OC(F)(F)C(F)(F)OC(F)(F)C(=O)O [Perfluoro-3,6-dioxaoctane-1,8-dioic acid]
# Experimental: as §1
# [6] = compound: O=S(=O)(O)C(F)(F)C(F)(F)C(F)(F)C(F)(F)C(F)(F)C(F)(F)F [Perfluorohexanesulfonic acid]
# Experimental: as §1
Test System,level (log10) ([1]; 6700 nM),level (log10) ([1]; 20000 nM),level (log10) ([2]; 6700 nM),level (log10) ([2]; 20000 nM),level (log10) ([2]; 60000 nM),level (log10) ([3]; 6700 nM),level (log10) ([3]; 20000 nM),level (log10) ([3]; 60000 nM),level (log10) ([4]; 6700 nM),level (log10) ([4]; 20000 nM),level (log10) ([4]; 60000 nM),level (log10) ([5]; 6700 nM),level (log10) ([5]; 20000 nM),level (log10) ([5]; 60000 nM),level (log10) ([6]; 6700 nM),level (log10) ([6]; 20000 nM),level (log10) ([6]; 60000 nM)
BF4T:CD106/VCAM-1,0.0015 ± 0.016,0.0065 ± 0.018,-0.029 ± 0.0071,-0.0615 ± 0.0064,-0.11 ± 0.012,0.002,0.0045 ± 0.00071,0.0215 ± 0.032,-0.0185 ± 0.029,0.0035 ± 0.028,0.028 ± 0.072,-0.0385 ± 0.022,-0.042 ± 0.0071,0.006 ± 0.071,-0.022 ± 0.024,-0.019 ± 0.0014,-0.0155 ± 0.033
BF4T:CXCL8/IL-8,0.009 ± 0.03,0.0155 ± 0.013,0.0065 ± 0.016,0.0295 ± 0.018,0.0605 ± 0.011,0.039 ± 0.021,0.009 ± 0.014,0.039 ± 0.0085,0.0005 ± 0.012,0.004 ± 0.0014,0.0095 ± 0.033,-0.011 ± 0.023,-0.0305 ± 0.0064,-0.0025 ± 0.037,0.002 ± 0.0085,0.0075 ± 0.0078,0.0255 ± 0.018
BF4T:IL-1alpha,-0.0175 ± 0.0021,0.01 ± 0.025,0.0015 ± 0.022,-0.001 ± 0.011,0.0065 ± 0.0092,0.001 ± 0.0057,-0.0175 ± 0.0035,0.0065 ± 0.013,-0.0025 ± 0.029,0.0085 ± 0.0064,0.013 ± 0.014,-0.004 ± 0.0099,0.0085 ± 0.0035,0.006 ± 0.021,-0.0055 ± 0.005,-0.025 ± 0.0042,0.0095 ± 0.00071
BF4T:Keratin 8/18,0.023 ± 0.033,-0.003 ± 0.033,0.0135 ± 0.022,-0.0085 ± 0.005,-0.015 ± 0.0028,-0.0065 ± 0.021,-0.011 ± 0.014,0.0035 ± 0.00071,-0.0015 ± 0.0092,-0.011 ± 0.011,0.0075 ± 0.018,-0.0075 ± 0.022,-0.008 ± 0.0014,0.0025 ± 0.019,0.007 ± 0.011,0.0075 ± 0.0064,0.026 ± 0.02
BF4T:MMP-1,-0.0045 ± 0.005,0.0135 ± 0.035,-0.001 ± 0.0057,-0.0015 ± 0.00071,0.008 ± 0.013,0.0115 ± 0.0092,0.0025 ± 0.005,0.011 ± 0.0085,0.0045 ± 0.022,-0.01 ± 0.017,0.0075 ± 0.015,0.0075 ± 0.0064,0.007 ± 0.027,0.0185 ± 0.032,0.0035 ± 0.0021,-0.0025 ± 0.023,0.0255 ± 0.0035
BF4T:MMP-3,0.021 ± 0.016,0.0005 ± 0.005,-0.006 ± 0.034,-0.0015 ± 0.0078,0.0545 ± 0.021,-0.0075 ± 0.042,-0.0185 ± 0.044,0.0095 ± 0.0078,0.0005 ± 0.035,0.0045 ± 0.015,0.006 ± 0.033,-0.001 ± 0.0028,-0.004 ± 0.0028,0.031 ± 0.025,0.021 ± 0.042,0.0195 ± 0.035,0.0605 ± 0.053
BF4T:MMP-9,-0.004 ± 0.071,-0.0115 ± 0.033,0.01 ± 0.0014,0.03 ± 0.0014,0.065 ± 0.017,0.0005 ± 0.0064,-0.0105 ± 0.015,0.002 ± 0.0028,0.006 ± 0.045,0.006 ± 0.059,0.022 ± 0.059,-0.021 ± 0.0057,-0.0135 ± 0.005,0.02 ± 0.017,0.006 ± 0.065,0.0115 ± 0.073,0.0135 ± 0.056
BF4T:PAI-I,-0.01 ± 0.0057,0.0055 ± 0.0064,0.012 ± 0.014,0.005 ± 0.0014,0.0135 ± 0.016,-0.004 ± 0.02,-0.008 ± 0.016,0.0115 ± 0.005,-0.003 ± 0.0057,-0.0115 ± 0.0064,0.0025 ± 0.023,0.0085 ± 0.013,0.007 ± 0.0099,0.0095 ± 0.012,0.0005 ± 0.03,-0.015 ± 0.017,-0.018 ± 0.0028
BF4T:SRB,-0.0045 ± 0.0021,-0.0025 ± 0.00071,-0.003 ± 0.0014,-0.0035 ± 0.00071,0.006 ± 0.016,-0.002 ± 0.0042,-0.005 ± 0.013,-0.0005 ± 0.016,-0.012 ± 0.0071,-0.0055 ± 0.00071,0 ± 0.0042,-0.0115 ± 0.00071,-0.014 ± 0.0014,0.003 ± 0.018,-0.01 ± 0.0085,-0.0115 ± 0.0078,-0.0005 ± 0.0021
